Reference: US20100120839A1, “PYRAZOLES USEFUL IN THE TREATMENT OF INFLAMMATION” (Biolipox AB, priority 2007, published 2010)

Each molecule was assayed against T1, purified human 15-lipoxygenase (Homo sapiens, UniProt P16050) (assay: 15-lipoxygenase inhibition assay (arachidonic acid oxidation, reverse phase HPLC readout)). Conditions: not given.
T1 sequence (P16050 1-662): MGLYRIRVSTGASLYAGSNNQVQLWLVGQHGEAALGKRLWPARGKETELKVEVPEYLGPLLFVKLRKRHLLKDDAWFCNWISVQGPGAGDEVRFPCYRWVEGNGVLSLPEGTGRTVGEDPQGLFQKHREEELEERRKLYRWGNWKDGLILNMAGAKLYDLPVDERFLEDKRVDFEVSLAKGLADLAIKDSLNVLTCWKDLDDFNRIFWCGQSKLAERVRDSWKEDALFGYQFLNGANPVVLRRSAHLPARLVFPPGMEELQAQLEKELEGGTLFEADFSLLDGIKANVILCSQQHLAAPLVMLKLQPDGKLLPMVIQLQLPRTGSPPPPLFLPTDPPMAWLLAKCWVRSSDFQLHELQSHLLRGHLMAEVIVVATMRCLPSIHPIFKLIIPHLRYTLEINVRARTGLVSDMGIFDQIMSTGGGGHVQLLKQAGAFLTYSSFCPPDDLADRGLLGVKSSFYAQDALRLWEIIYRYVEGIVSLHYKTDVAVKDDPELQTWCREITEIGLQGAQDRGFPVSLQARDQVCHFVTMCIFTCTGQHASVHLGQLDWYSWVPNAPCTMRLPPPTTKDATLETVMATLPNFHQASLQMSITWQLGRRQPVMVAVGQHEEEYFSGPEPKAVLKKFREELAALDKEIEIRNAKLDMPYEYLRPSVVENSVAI
Assay type: biochemical
Method: The assay employed takes advantage of the ability of lipoxygenases to oxidize polyunsaturated fatty acids, containing a 1,4-cis-pentadiene configuration, to their corresponding hydroperoxy or hydroxyl derivatives. In this particular assay, the lipoxygenase was a purified human 15-lipoxygenase and the fatty acid was arachidonic acid. The assay is performed at room temperature (20-22° C.) and the following are added to each well in a 96-well microtiter plate:
a) 35 μL phosphate buffered saline (PBS) (pH 7.4); b) inhibitor (i.e. compound) or vehicle (0.5 μl DMSO); c) 10 μL of a 10× concentrated solution of 15-lipoxygenase in PBS. […] The plate is then incubated for 10 minutes at room temperature; e) the enzymatic reaction is terminated by the addition of 100 μl methanol; and f) the amount of 15-hydroperoxy-eicosatetraenoic acid or 15-hydroxy-eicosatetraenoic acid is measured by reverse phase HPLC.

| Structure (SMILES) | IC50 [nM] |
| --- | --- |
| c1ccc2oc(-c3cc[nH]n3)nc2c1 [Example 1, 2-(Pyrazol-3-yl)-benzoxazole] | 224 |

Same assay, conditions: arachidonic acid substrate, room temperature (20-22° C.), PBS pH 7.4; read-out: IC50

| IC50 [nM] | Structure (SMILES) |
| --- | --- |
| 49 | Fc1cccc2oc(-c3cc(Cl)[nH]n3)nc12 [Example 17, 2-(5-Chloropyrazol-3-yl)-4-fluorobenzoxazole] |
| 41 | Fc1cccc2nc(-c3cc(Cl)[nH]n3)oc12 [Example 15, 2-(5-Chloropyrazol-3-yl)-7-fluorobenzoxazole] |

Further lines, the molecule ahead of its results:

| Structure (SMILES) | IC50 [nM] |
| --- | --- |
| FC(F)(F)c1cnc2oc(-c3n[nH]c(Cl)c3Cl)nc2c1 [Example 33, 2-(4,5-Dichloropyrazol-3-yl)-6-(trifluoromethyl)-oxazolo[5,4-b]pyridine] | 85 |
| Fc1cccc2oc(-c3n[nH]c(Cl)c3Cl)nc12 [Example 18, 2-(4,5-Dichloropyrazol-3-yl)-4-fluorobenzoxazole] | 35 |
| Clc1[nH]nc(-c2nc3cccnc3o2)c1Cl [Example 32, 2-(4,5-Dichloropyrazol-3-yl)oxazolo[5,4-b]pyridine] | 127 |
| Clc1cc(-c2nc3ccccc3o2)n[nH]1 [Example 11, 2-(5-Chloropyrazol-3-yl)benzoxazole] | 33 |
